Measurements: patent US6737383B1, “Herbicidal oxadiazolidines” (priority 1999, dated 2004)

Experiments:
purple nutsedge = assay: Test B pre/postemergence purple nutsedge; format: in vivo, Cyperus rotundus
Procedure, shortened: (§1)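 Herbicidal effect was estimated by eye on a ten-point control scale after plants spent twelve to sixteen days in a greenhouse following soil or foliar treatment. Foliar sprays targeted plants at one to four leaves; all doses were formulated in a non-phytotoxic solvent with surfactant.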

surinam grass = assay: Test B pre/postemergence surinam grass; format: in vivo, Brachiaria decumbens
Procedure, shortened: as §1

wild oat = assay: Test B pre/postemergence wild oat; format: in vivo, Avena fatua
Procedure, shortened: as §1

bedstraw = assay: Test B pre/postemergence bedstraw; format: in vivo, Galium aparine; details: Postemergence
Procedure, shortened: as §1

corn = assay: Test B pre/postemergence corn; format: in vivo, Zea mays
Procedure, shortened: as §1

soybean = assay: Test B pre/postemergence soybean; format: in vivo, Glycine max
Procedure, shortened: as §1

bamyardgrass = assay: Test B flood test barnyardgrass; format: in vivo, Echinochloa crus-galli
Procedure, shortened: (§2)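 Read-out is a visual response score from 0 (no effect) to 10 (complete control), assigned by comparison with untreated controls. Treatment was applied at the 2-leaf stage, and plants stayed in the greenhouse for twelve to sixteen days before scoring.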

crabgrass = assay: Test B pre/postemergence crabgrass; format: in vivo, Digitaria sanguinalis
Procedure, shortened: as §1

wheat = assay: Test B pre/postemergence wheat; format: in vivo, Triticum aestivum
Procedure, shortened: as §1

cocklebur = assay: Test B pre/postemergence cocklebur; format: in vivo, Xanthium strumarium
Procedure, shortened: as §1

sugar beet = assay: Test B pre/postemergence sugar beet; format: in vivo, Beta vulgaris
Procedure, shortened: as §1

rice = assay: Test B flood test rice; format: in vivo, Oryza sativa
Procedure, shortened: as §2

duck salad = assay: Test B flood test duck salad; format: in vivo, Heteranthera limosa
Procedure, shortened: as §2

blackgrass = assay: Test B pre/postemergence blackgrass; format: in vivo, Alopecurus myosuroides
Procedure, shortened: as §1

smallflower flatsedge = assay: Test B flood test smallflower flatsedge; format: in vivo, Cyperus difformis
Procedure, shortened: as §2

pigweed = assay: Test B pre/postemergence pigweed; format: in vivo, Amaranthus retroflexus
Procedure, shortened: as §1

velvetleaf = assay: Test B pre/postemergence velvetleaf; format: in vivo, Abutilon theophrasti
Procedure, shortened: as §1

giant foxtail = assay: Test B pre/postemergence giant foxtail; format: in vivo, Setaria faberii
Procedure, shortened: as §1

morningglory = assay: Test B pre/postemergence morningglory; format: in vivo, Ipomoea hederacea
Procedure, shortened: as §1

rape = assay: Test B pre/postemergence rape; format: in vivo, Brassica napus
Procedure, shortened: as §1

[1] = Postemergence, Rate 125 g/ha, scale 0 to 10, 0 is no effect, 10 is complete control
[2] = Postemergence, Rate 500 g/ha, scale 0 to 10, 0 is no effect, 10 is complete control
[3] = Preemergence, Rate 62 g/ha, scale of 0 to 10 where 0 is no effect and 10 is complete control
[4] = Preemergence, Rate 125 g/ha, scale 0 to 10, 0 is no effect, 10 is complete control
[5] = Preemergence, Rate 500 g/ha, scale 0 to 10, 0 is no effect, 10 is complete control
[6] = Rate 62 g/ha, Postemergence, scale 0 to 10 (0 no effect, 10 complete control)
[7] = Preemergence, Rate 250 g/ha, scale 0 to 10, 0 is no effect, 10 is complete control
[8] = Postemergence, Rate 250 g/ha, scale 0 to 10
[9] = Rate 62 g/ha, flood test species, Pre-emergence, visual evaluation after twelve to sixteen days
[10] = Rate 125 g/ha, under heading Pre-emergence, flood test species, visual evaluation after twelve to sixteen days
[11] = Rate 250 g/ha, Pre-emergence (flood test species), scale 0 to 10, 0 is no effect, 10 is complete control
[12] = Rate 500 g/ha, Pre-emergence section of Table B, 0 to 10 scale (0 no effect, 10 complete control)

CC(C)C(=O)Cn1c(=O)on(C(=O)N(c2ccc(Cl)cc2)C(C)C)c1=O [Compound 487]
9: Crabgrass plant response rating (crabgrass; [4]) | Blackgrass plant response rating (blackgrass; [5]) | Plant response rating, Giant foxtail (giant foxtail; [3]) | Giant foxtail plant response rating (giant foxtail; [4])
10: Crabgrass plant response rating (crabgrass; [5]) | Redroot pigweed plant response rating (pigweed; [5]) | Giant foxtail plant response rating (giant foxtail; [5]) | Morningglory plant response rating (morningglory; [1]) | Plant response rating, Morningglory (morningglory; [2])
5: B. signalgrass plant response rating (surinam grass; [5]) | Plant response rating, Soybean (soybean; [2]) | Crabgrass plant response rating (crabgrass; [8]) | Plant response rating, Crabgrass (crabgrass; [2])
4: Soybean plant response rating (soybean; [1])
1: Plant response rating, Blackgrass (blackgrass; [2]) | Plant response rating, Redroot pigweed (pigweed; [3])
0: Nutsedge plant response rating (purple nutsedge; [1]) | Plant response rating, Nutsedge (purple nutsedge; [2]) | Plant response rating, Nutsedge (purple nutsedge; [3]) | Nutsedge plant response rating (purple nutsedge; [4]) | Nutsedge plant response rating (purple nutsedge; [5]) | Nutsedge plant response rating (purple nutsedge; [6]) | B. signalgrass plant response rating (surinam grass; [1]) | B. signalgrass plant response rating (surinam grass; Postemergence, Rate 250 g/ha, scale 0 to 10, 0 no effect, 10 complete control) | Plant response rating, B. signalgrass (surinam grass; [2]) | B. signalgrass plant response rating (surinam grass; [6]) | Wild oats plant response rating (wild oat; [1]) | Plant response rating, Wild oats (wild oat; [2]) | Plant response rating, Wild oats (wild oat; [3]) | Wild oats plant response rating (wild oat; [4]) | Wild oats plant response rating (wild oat; [6]) | Bedstraw plant response rating (bedstraw; Rate 62 g/ha, scale 0 to 10 (0 no effect, 10 complete control)) | Corn plant response rating (corn; [1]) | Corn plant response rating (corn; [8]) | Plant response rating, Corn (corn; [2]) | Plant response rating, Corn (corn; [3]) | Corn plant response rating (corn; [4]) | Corn plant response rating (corn; [5]) | Corn plant response rating (corn; [6]) | Plant response rating, Soybean (soybean; [3]) | Soybean plant response rating (soybean; [4]) | Soybean plant response rating (soybean; [5]) | Plant response rating, Barnyardgrass (0 to 10 scale, 0 is no effect, 10 is complete control) (bamyardgrass; [9]) | Barnyardgrass plant response rating (0 to 10 scale, 0 is no effect, 10 is complete control) (bamyardgrass; [10]) | Barnyardgrass plant response rating (bamyardgrass; [11]) | Barnyardgrass plant response rating (bamyardgrass; [12]) | Crabgrass plant response rating (crabgrass; [6]) | Wheat plant response rating (wheat; [1]) | Plant response rating, Wheat (wheat; [2]) | Plant response rating, Wheat (wheat; [3]) | Wheat plant response rating (wheat; [4]) | Wheat plant response rating (wheat; [5]) | Wheat plant response rating (wheat; [6]) | Cocklebur plant response rating (cocklebur; [1]) | Cocklebur plant response rating (cocklebur; [8]) | Plant response rating, Cocklebur (cocklebur; [2]) | Plant response rating, Cocklebur (cocklebur; [3]) | Cocklebur plant response rating (cocklebur; [7]) | Cocklebur plant response rating (cocklebur; [5]) | Cocklebur plant response rating (cocklebur; [6]) | Sugarbeets plant response rating (sugar beet; [1]) | Plant response rating, Sugarbeets (sugar beet; [2]) | Plant response rating, Sugarbeets (sugar beet; [3]) | Sugarbeets plant response rating (sugar beet; [4]) | Sugarbeets plant response rating (sugar beet; [5]) | Sugarbeets plant response rating (sugar beet; [6]) | Plant response rating, Rice (0 to 10 scale, 0 is no effect, 10 is complete control) (rice; [9]) | Rice plant response rating (0 to 10 scale, 0 is no effect, 10 is complete control) (rice; [10]) | Rice plant response rating (rice; [11]) | Rice plant response rating (rice; [12]) | Plant response rating, Ducksalad (0 to 10 scale, 0 is no effect, 10 is complete control) (duck salad; [9]) | Ducksalad plant response rating (0 to 10 scale, 0 is no effect, 10 is complete control) (duck salad; [10]) | Ducksalad plant response rating (duck salad; [11]) | Ducksalad plant response rating (duck salad; [12]) | Blackgrass plant response rating (blackgrass; [1]) | Blackgrass plant response rating (blackgrass; [8]) | Blackgrass plant response rating (blackgrass; [6]) | Plant response rating, S. Flatsedge (0 to 10 scale, 0 is no effect, 10 is complete control) (smallflower flatsedge; [9]) | S. Flatsedge plant response rating (0 to 10 scale, 0 is no effect, 10 is complete control) (smallflower flatsedge; [10]) | S. Flatsedge plant response rating (smallflower flatsedge; [11]) | S. Flatsedge plant response rating (smallflower flatsedge; [12]) | Redroot pigweed plant response rating (pigweed; [6]) | Velvetleaf plant response rating (velvetleaf; [1]) | Plant response rating, Velvetleaf (velvetleaf; [3]) | Velvetleaf plant response rating (velvetleaf; [4]) | Velvetleaf plant response rating (velvetleaf; [5]) | Giant foxtail plant response rating (giant foxtail; [6]) | Plant response rating, Morningglory (morningglory; [3]) | Morningglory plant response rating (morningglory; [4]) | Morningglory plant response rating (morningglory; [5]) | Rape plant response rating (rape; [1]) | Plant response rating, Rape (rape; [3]) | Rape plant response rating (rape; [4]) | Rape plant response rating (rape; [5]) | Rape plant response rating (rape; [6])
8: Redroot pigweed plant response rating (pigweed; [4]) | Plant response rating, Giant foxtail (giant foxtail; [2])
2: Bedstraw plant response rating (bedstraw; Rate 125 g/ha, scale 0 to 10, 0 is no effect, 10 is complete control) | Plant response rating, Blackgrass (blackgrass; [3]) | Redroot pigweed plant response rating (pigweed; [1]) | Plant response rating, Velvetleaf (velvetleaf; [2]) | Giant foxtail plant response rating (giant foxtail; [1]) | Morningglory plant response rating (morningglory; [6])
6: Wild oats plant response rating (wild oat; [5]) | Bedstraw plant response rating (bedstraw; Rate 250 g/ha, scale 0 to 10) | Plant response rating, Bedstraw (bedstraw; Rate 500 g/ha, scale 0 to 10, 0 is no effect, 10 is complete control) | Plant response rating, Crabgrass (crabgrass; [3])
7: Blackgrass plant response rating (blackgrass; [7])
3: Plant response rating, B. signalgrass (surinam grass; [3]) | B. signalgrass plant response rating (surinam grass; [4]) | B. signalgrass plant response rating (surinam grass; [7]) | Soybean plant response rating (soybean; [6]) | Crabgrass plant response rating (crabgrass; [1]) | Blackgrass plant response rating (blackgrass; [4]) | Plant response rating, Redroot pigweed (pigweed; [2]) | Plant response rating, Rape (rape; [2])
